For `Cn1ncc(C(=O)c2ccc(S(C)(=O)=O)c(C3=NOCC3)c2Cl)c1O` [3.35, 4-[2-Chloro-3-(4,5-dihydroisoxazol-3-yl)-4-methylsulfonyl-benzoyl]-5-hydroxy-1-methyl-1H-pyrazole], the melting point was over 250 °C.

Source: US7608564B2, “3-heterocyclyl-substituted benzoyl derivatives” (BASF Aktiengesellschaft, priority 1997, dated 2009)
